Series [1] has as its system human tumor xenografts. To be noted: human tumor xenografts in mice; Pantazis et al.; cited from earlier work.
Series [2] is classed as physicochemical. To be noted: PSD of raw powders.
Series [3] in a line: PK absorption of CZ48 in dogs. Type of series: in vivo. To be noted: Dog, 400 mg/kg based on API content. From the text: Tmax refers to time to reach Cmax.
The subject of series [4] is human xenografts. Description: Raw CZ48 powders in cottonseed oil against 29 human xenografts in nude mice. The settings on record: cancerous mice. In kind it is in vivo. On the technique in general: In xenograft studies the graft and the host belong to different species.
Source text: (§1) Raw or native CZ48 powders have been intensively tested against human xenografts grown in nude mice. […] Cmax refers to the peak plasma concentration of the drug after administration.
For series [5], the system named is human HT29-colon tumor. The settings on record: nude mice; Cao et al. Cancer Research 2009; cited from earlier work.
A short description of series [6]: PK studies of raw CZ48 cottonseed oil suspension in mice. The settings on record: dose 100 mg/kg or higher.
Source text: as §1
For series [7] the following is noted: Wall et al. 1969; Giovanella et al. 1991; cited from earlier work.
The mark [8] stands for this setting: analyte in blood, source CZ48 composite particles equivalent to 400 mg/kg API, single dose, female healthy mice, CPT is the metabolite.

The values below come from US9675609B2 (priority 2015, dated 2017).

Like-named read-outs stand apart in the source and are kept apart here.

`CC[C@@]1(O)C(=O)OCc2c1cc1n(c2=O)Cc2cc3c([N+](=O)[O-])cccc3nc2-1` [9NC, 9-nitrocamptothecin]: the “times more potent than CPT” value in series [1] is given as 2-3 times.
What is called Cmax is the highest concentration seen after dosing. Broadly, the Tmax is the time from dosing to the highest level. Regarding `CC[C@@]1(O)C(=O)OCc2c1cc1n(c2=O)Cc2cc3ccccc3nc2-1` [CPT, 20(S)-camptothecin, reference compound], under setting [8], the AUC0-24 was 51.7 ng·h/mL, the maximum concentration (Cmax) amounted to 26.0 ng/mL and the Tmax turned out to be 30 min.
As to `CCC(=O)O[C@]1(CC)C(=O)OCc2c1cc1n(c2=O)Cc2cc3ccccc3nc2-1` [CZ48, camptothecin-20-O-propionate hydrate], in series [2], the “D[4,3]” value turned out to be 7.612 μm, the “d(0.1)” value is reported as 2.612 μm, the “d(0.5)” value amounted to 6.220 μm and the “d(0.9)” value is recorded as 14.556 μm. For the same molecule, in series [3], the AUC0-24 stood at 38.7 ng·h/mL, the Cmax is 3.4 ng/mL and the Tmax came to 240 min. Besides, the “Cmax minimum requirement for a positive effect” value in series [4] was 100 ng/mL. The Tmax (Mouse, 400 mg/kg based on API content) was 60 min. The Tmax under setting [8] was found to be 30 min. Moreover, the “dose needed to achieve the same result (good activity against HT29-colon tumor)” value in series [5] is on record as 1000 mg/kg. The maximum concentration (Cmax) entry in series [6] is reported as “greater than 100 ng/ml”.
For `CC[C@@](O)(C(=O)[O-])c1cc2n(c(=O)c1CO)Cc1cc3ccccc3nc1-2.[Na+]` [sodium carboxylate salt], the “potency relative to native camptothecin with closed lactone ring” value in series [7] is 10%.
